Experimental data from ChEMBL document CHEMBL4699560, “Synthesis and Stereochemical Assignment of Conioidine A: DNA- and HSA-Binding Studies of the Four Diastereomers” (J Nat Prod, 2020).

Each compound was assayed on Calf thymus DNA (assay: Displacement of EtBr from calf thymus DNA at 50 uM incubated for 3 mins by fluorescence based assay relative to control). Conditions: Bos taurus.
Assay type: tissue-based
In the case of `C/C=C(\C)C(=O)O[C@H](C)C[C@H]1CCCN1C(=O)CCCCCCCCC`, the Activity is reported as 93%.

What follows are compounds tested on Calf thymus DNA (assay: Displacement of EtBr from calf thymus DNA incubated for 3 mins by fluorescence based assay). Conditions: Bos taurus.
Assay type: tissue-based
`OC[C@H]1O[C@H](O)[C@H](O)[C@@H](O)[C@@H]1O` was tested, and the C50 was 390 µM.
Work on `C/C=C(\C)C(=O)O[C@H](C)C[C@H]1CCCN1C(=O)CCCCCCCCC` yielded a C50 of 480 µM.
With `C/C=C(\C)C(=O)O[C@@H](C)C[C@@H]1CCCN1C(=O)CCCCCCCCC` the C50 was 470 µM.
`C/C=C(\C)C(=O)O[C@H](C)C[C@@H]1CCCN1C(=O)CCCCCCCCC` showed a C50 of 380 µM.
`C/C=C(\C)C(=O)O[C@@H](C)C[C@H]1CCCN1C(=O)CCCCCCCCC` showed a C50 of 340 µM.
Compound `Cn1cc(NC(=O)c2cc(NC(=O)CNC(=N)N)cn2C)cc1C(=O)NCCC(=N)N` has a C50 of 10 µM.

Each compound was assayed on Calf thymus DNA (assay: Displacement of EtBr from calf thymus DNA assessed per base pair incubated for 3 mins by fluorescence based assay). Conditions: Bos taurus.
Assay type: tissue-based
In the case of `C/C=C(\C)C(=O)O[C@H](C)C[C@H]1CCCN1C(=O)CCCCCCCCC`, the Kapp is reported as 1.8 10^5/M.
For `Cn1cc(NC(=O)c2cc(NC(=O)CNC(=N)N)cn2C)cc1C(=O)NCCC(=N)N`, the Kapp was 5.1 10^6/M.

The compounds below were run on Calf thymus DNA (assay: Binding affinity to calf thymus DNA assessed as change in melting temperature at DNA to ligand ratio at 40:1 by spectrophotometric method). Conditions: Bos taurus.
Assay type: tissue-based
In the case of `OC[C@H]1O[C@H](O)[C@H](O)[C@@H](O)[C@@H]1O`, the ΔTm is reported as 10.3 °C.
`Cn1cc(NC(=O)c2cc(NC(=O)CNC(=N)N)cn2C)cc1C(=O)NCCC(=N)N` gave a ΔTm of 0.7 °C.

What follows are compounds tested against T1, Albumin (Homo sapiens, UniProt P02768) (assay: Binding affinity to human serum albumin assessed as quenching constant by Stern-Volmer plot analysis). Conditions: not given.
T1 sequence (P02768 whole entry): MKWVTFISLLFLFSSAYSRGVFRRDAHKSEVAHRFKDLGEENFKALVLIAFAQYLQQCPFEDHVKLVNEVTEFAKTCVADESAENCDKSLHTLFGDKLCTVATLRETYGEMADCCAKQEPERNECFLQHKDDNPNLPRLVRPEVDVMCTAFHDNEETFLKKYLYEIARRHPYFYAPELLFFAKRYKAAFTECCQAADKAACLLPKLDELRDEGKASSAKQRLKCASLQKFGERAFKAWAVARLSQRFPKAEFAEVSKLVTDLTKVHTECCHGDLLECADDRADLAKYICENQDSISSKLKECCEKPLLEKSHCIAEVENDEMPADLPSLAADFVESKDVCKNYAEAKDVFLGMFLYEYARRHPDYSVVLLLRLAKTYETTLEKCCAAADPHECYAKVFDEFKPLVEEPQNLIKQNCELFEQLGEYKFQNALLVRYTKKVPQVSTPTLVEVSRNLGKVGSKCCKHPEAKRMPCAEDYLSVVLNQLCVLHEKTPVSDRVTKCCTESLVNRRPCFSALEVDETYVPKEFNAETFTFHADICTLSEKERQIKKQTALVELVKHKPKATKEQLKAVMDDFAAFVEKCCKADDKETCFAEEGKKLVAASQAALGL
Assay type: ADME, cell-free
In the case of `C/C=C(\C)C(=O)O[C@H](C)C[C@H]1CCCN1C(=O)CCCCCCCCC`, the KSV is reported as 7.2 10^5/M.
With `C/C=C(\C)C(=O)O[C@@H](C)C[C@@H]1CCCN1C(=O)CCCCCCCCC` the KSV was 3 10^4/M.
For `C/C=C(\C)C(=O)O[C@H](C)C[C@@H]1CCCN1C(=O)CCCCCCCCC`, the KSV was 3 10^4/M.
In the case of `C/C=C(\C)C(=O)O[C@@H](C)C[C@H]1CCCN1C(=O)CCCCCCCCC`, the KSV is reported as 1.3 10^5/M.

These compounds were tested against T1, Albumin (assay: Binding affinity to human serum albumin […]). Conditions: not given.
Assay type: ADME, cell-free
In the case of `C/C=C(\C)C(=O)O[C@H](C)C[C@H]1CCCN1C(=O)CCCCCCCCC`, the Kb is reported as 6.4 10^4/M.
In the case of `C/C=C(\C)C(=O)O[C@@H](C)C[C@@H]1CCCN1C(=O)CCCCCCCCC`, the Kb is reported as 7.2 10^4/M.
In the case of `C/C=C(\C)C(=O)O[C@H](C)C[C@@H]1CCCN1C(=O)CCCCCCCCC`, the Kb is reported as 5.9 10^4/M.
`C/C=C(\C)C(=O)O[C@@H](C)C[C@H]1CCCN1C(=O)CCCCCCCCC` was tested, and the Kb was 16 10^4/M.
